Eleven compounds from PubChem BioAssay (NCI) can be followed below.

Test systems include A498 renal; K-562 leukemia; MOLT-4 leukemia; NCI-H226 lung; OVCAR-5 ovarian; RPMI-8226 leukemia; SF-268 CNS; SK-OV-3 ovarian; ACHN renal; OVCAR-4 ovarian; TK-10 renal; HS 578T breast; MDA-N; PC-3 prostate.
Common to all, as to experiment: inhibition of tumour cell growth, NCI panel, 48 h

“And” between values parts separate entries of the source, which are not always exact repeats. Identical values can stand only once.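 Each compound was tested at five concentrations against cells in 96-well plates for 48 hours. GI50: concentration for 50% inhibition of growth. At the TGI there is no net growth.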 A value given as a limit tells only on which side of the number the result lay.

Take `C=C1C(O)C2(O)OCC34C(CC5C(C)=CC(=O)C(O)C5(C)C23)OC(=O)C(OC(=O)C/C=C/CCCCCCCC)C14` (stereo unspecified): the TGI in the test with A498 renal came to 0.0324 µM; in the test on K-562 leukemia, 0.251 µM; in the test with MOLT-4 leukemia it was 0.533 µM; with NCI-H226 lung it was 0.029 µM; with OVCAR-5 ovarian it was 0.773 µM; with RPMI-8226 leukemia, 0.0249 µM. The TGI was found to be 0.035 µM in the test on SF-268 CNS and 0.606 µM in the test with SK-OV-3 ovarian.

For the compound `CCCCCCCCCCCCCCCc1nc(=S)[nH][nH]1`, the TGI in the test on A498 renal, in the test on ACHN renal, in the test on K-562 leukemia, with MOLT-4 leukemia, in the test on OVCAR-4 ovarian and in the test on OVCAR-5 ovarian was more than 100 µM each time. Also, the TGI in the test with RPMI-8226 leukemia, with SF-268 CNS, with SK-OV-3 ovarian and with TK-10 renal was more than 100 µM throughout.

On to `COc1ccc2nc3cc(Cl)ccc3c(NCCCN3CCN(CCCNc4ccc5nnn6c7ccccc7c(=O)c4c56)CC3)c2c1`, for which the TGI in the test on A498 renal, in the test on HS 578T breast, with K-562 leukemia, in the test with MDA-N, in the test with MOLT-4 leukemia and in the test with NCI-H226 lung was more than 25 µM throughout. In addition, the TGI in the test with OVCAR-4 ovarian, in the test on OVCAR-5 ovarian, in the test with PC-3 prostate, with RPMI-8226 leukemia, in the test on SF-268 CNS and in the test on SK-OV-3 ovarian was more than 25 µM in each case. Further, the TGI in the test with TK-10 renal is more than 25 µM.

For `COc1cc(C2S/C(=C/c3ccccc3)C(=O)N2c2cccc(NC(C)=O)c2)cc(OC)c1OC` (stereo unspecified), the TGI in the test with A498 renal was 93.7 µM; with ACHN renal, more than 100 µM; in the test with HS 578T breast, 60.7 µM; in the test on K-562 leukemia, more than 100 µM; with MDA-N it was more than 100 µM; with MOLT-4 leukemia, more than 100 µM. The TGI was more than 100 µM in the test on NCI-H226 lung; more than 100 µM with OVCAR-4 ovarian; more than 100 µM with OVCAR-5 ovarian; 48.9 µM in the test with PC-3 prostate; more than 100 µM in the test with SF-268 CNS; more than 100 µM with SK-OV-3 ovarian. The compound further showed a TGI with TK-10 renal of more than 100 µM.

As for `CC1(C)OC[C@@H]([C@@]2(COC(c3ccccc3)(c3ccccc3)c3ccccc3)CC=CC(=O)O2)O1`, the TGI was 71.4 µM with A498 renal; more than 100 µM with ACHN renal; more than 100 µM in the test with HS 578T breast; more than 100 µM with K-562 leukemia; 98.2 µM in the test on MOLT-4 leukemia; more than 100 µM in the test on NCI-H226 lung. Besides, the TGI with OVCAR-4 ovarian is more than 100 µM; with OVCAR-5 ovarian it was more than 100 µM; in the test with PC-3 prostate, more than 100 µM; in the test on RPMI-8226 leukemia, 64.7 µM; in the test with SF-268 CNS, more than 100 µM; in the test on SK-OV-3 ovarian, more than 100 µM. Also, in the test with TK-10 renal, the TGI was more than 100 µM.

Regarding `O=c1c2cc(O)ccc2n2nnc3ccc(NCCNCCO)c1c32`, the GI50 in the test with A498 renal is 25.1 µM and 6.77 µM; in the test with ACHN renal it was 7.68 µM and 3.58 µM; with K-562 leukemia, 6.58 µM and 2.59 µM; in the test with MOLT-4 leukemia, 1.83 µM and 0.205 µM; with OVCAR-5 ovarian, 22.5 µM and 9.69 µM; in the test with TK-10 renal it was 3.75 µM and 9.62 µM. Besides, the TGI is > 87.4 µM and 16.7 µM with A498 renal; > 64.8 µM and 22.1 µM in the test on ACHN renal; > 62.8 µM and 14.7 µM in the test on K-562 leukemia; 26.7 µM and 11.5 µM in the test with NCI-H226 lung; 33.2 µM and 15.9 µM in the test with OVCAR-4 ovarian; > 100 µM and 34 µM in the test on OVCAR-5 ovarian. Moreover, the TGI with RPMI-8226 leukemia was 65 µM and 31.7 µM; with SF-268 CNS it was 11.2 µM and 13.1 µM; with SK-OV-3 ovarian, > 100 µM and 37 µM; in the test with TK-10 renal, > 50 µM and 60.8 µM.

With `Cc1ccc(-c2cc(-c3ccc(Cl)cc3)nc(/N=C3\C(=O)N(CN(C)C)c4ccccc43)n2)cc1`, the TGI with A498 renal was more than 100 µM; in the test with ACHN renal, more than 100 µM; in the test on HS 578T breast it was more than 100 µM; in the test with K-562 leukemia, more than 100 µM; in the test with MDA-N, 43.9 µM; with MOLT-4 leukemia, 33.5 µM. For the same compound, the TGI in the test on NCI-H226 lung, in the test with OVCAR-4 ovarian, in the test on OVCAR-5 ovarian, in the test with PC-3 prostate, in the test with SF-268 CNS and in the test with SK-OV-3 ovarian was more than 100 µM each time. In the test on TK-10 renal, this compound had a TGI of more than 100 µM.

Take `O=C(O)c1cc2ccccc2c(N=Nc2ccc(S(=O)(=O)Nc3ncccn3)cc2)c1O`: the TGI with ACHN renal, in the test with HS 578T breast, in the test with K-562 leukemia, with MOLT-4 leukemia, in the test with NCI-H226 lung and in the test on OVCAR-4 ovarian was more than 100 µM throughout. The TGI with OVCAR-5 ovarian, in the test with PC-3 prostate, in the test with RPMI-8226 leukemia, in the test with SF-268 CNS, with SK-OV-3 ovarian and with TK-10 renal was more than 100 µM in each case.

As for `Nc1nc(SCC(=O)c2ccc(Br)cc2)c2[nH]cnc2n1`, the TGI in the test with A498 renal was more than 100 µM; in the test on ACHN renal, more than 100 µM; in the test with HS 578T breast, 81.9 µM; with K-562 leukemia it was more than 100 µM; in the test with MDA-N, more than 100 µM; in the test on NCI-H226 lung, more than 100 µM. In addition, the TGI with OVCAR-4 ovarian, in the test on OVCAR-5 ovarian, in the test on PC-3 prostate, with RPMI-8226 leukemia, with SF-268 CNS and in the test on SK-OV-3 ovarian was more than 100 µM each time. The compound also registered a TGI with TK-10 renal of 56.8 µM.

Take `COc1ccccc1-c1c(C#N)c(N)[nH]c(=S)c1C#N`: the TGI was more than 100 µM in the test with A498 renal; more than 100 µM in the test on ACHN renal; more than 100 µM in the test with HS 578T breast; more than 100 µM in the test on K-562 leukemia; 67.1 µM in the test with MDA-N; more than 100 µM with MOLT-4 leukemia. Besides, the TGI with NCI-H226 lung, in the test with OVCAR-4 ovarian, in the test with OVCAR-5 ovarian, with PC-3 prostate, in the test with RPMI-8226 leukemia and in the test with SF-268 CNS was more than 100 µM each time. In the test on TK-10 renal, this compound registered a TGI of more than 100 µM.

As to `COc1ccc(C2C3CCc4ccccc4C3=NN2S(=O)(=O)c2cccc(C(=O)O)c2OC)cc1` (stereo unspecified), the TGI in the test with ACHN renal is 63.9 µM; in the test on K-562 leukemia, more than 100 µM; with MDA-N it was 7.25 µM; in the test on MOLT-4 leukemia it was more than 100 µM; in the test with NCI-H226 lung it was more than 100 µM; with OVCAR-4 ovarian, more than 100 µM. In addition, the TGI with OVCAR-5 ovarian was more than 100 µM; in the test on PC-3 prostate, more than 100 µM; in the test with RPMI-8226 leukemia, 54.7 µM; with SF-268 CNS, more than 100 µM; in the test with SK-OV-3 ovarian it was 17.7 µM; in the test on TK-10 renal, more than 100 µM.
